# PubChem BioAssay (NCI)
#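 Tested at 5 concentrations; 48 h exposure; 96-well plates; endpoints linearly interpolated, else capped at highest concentration. The concentration for 50% growth inhibition is given as GI50. Definition used: TGI = concentration required for complete inhibition of growth.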
# Assays:
# Test in all cases: NCI tumour cell line growth inhibition, 48 h
# UACC-257 melanoma = test system: UACC-257 melanoma
# HT29 colon = test system: HT29 colon
# 786-0 renal = test system: 786-0 renal
# PC-3 prostate = test system: PC-3 prostate
# MOLT-4 leukemia = test system: MOLT-4 leukemia
# SN12C renal = test system: SN12C renal
# SW-620 colon = test system: SW-620 colon
# A549 NSCLC = test system: A549 NSCLC
# HOP-92 NSCLC = test system: HOP-92 NSCLC
# OVCAR-8 ovarian = test system: OVCAR-8 ovarian
SMILES,TGI (UACC-257 melanoma) [µM],TGI (HT29 colon) [µM],TGI (786-0 renal) [µM],TGI (PC-3 prostate) [µM],TGI (MOLT-4 leukemia) [µM],TGI (SN12C renal) [µM],TGI (SW-620 colon) [µM],TGI (A549 NSCLC) [µM],TGI (HOP-92 NSCLC) [µM],TGI (OVCAR-8 ovarian) [µM],GI50 (UACC-257 melanoma) [µM],GI50 (HT29 colon) [µM],GI50 (786-0 renal) [µM],GI50 (PC-3 prostate) [µM],GI50 (MOLT-4 leukemia) [µM],GI50 (SN12C renal) [µM],GI50 (SW-620 colon) [µM],GI50 (A549 NSCLC) [µM],GI50 (HOP-92 NSCLC) [µM],GI50 (OVCAR-8 ovarian) [µM]
CSC(=S)NN=C1CCCCC1,> 100,> 100,> 100,> 100,40.8,84.9,> 100,> 100,> 100,> 100,,,,,,,,,,
Nc1cc(C(F)F)c(-c2nc(N3[C@@H]4CC[C@H]3COC4)nc(N3[C@@H]4CC[C@H]3COC4)n2)cn1,4.31,> 100,14.3,> 100,> 100,> 100,> 100,> 100,0.722,> 100,0.295,0.628,0.306,0.239,0.796,0.342,0.803,0.341,0.0688,0.465
COc1ccc2[nH]cc(/C=C3\C(=O)Nc4ccccc43)c2c1,73.1,14.3,30.2,25.8,7.4,39.9,12.8,24.4,13.6,21.8,14.3,3.6,11.9,5.89,2.33,7.37,2.92,4.68,3.84,7.02
CCOC(=O)C(=Cc1ccc(Br)cc1)C(=O)OCC,4.15,5.86,3.85,5.96,20.2,4.21,3.58,5.83,4.8,6.79,1.88,2.25,2.01,1.86,2.94,2.03,1.61,2.28,1.45,2.36
NC(C(=O)O)C(N)C(=O)O (stereo not given),> 100,> 100,> 100,> 100,> 100,> 100,> 100,> 100,> 100,> 100,,,,,,,,,,
O=[N+]([O-])c1ccc2nc(N/N=C/c3ccc(O)cc3)sc2c1,45,28,60.5,34.2,> 100,> 100,27.2,29.4,8.96,32.2,9.09,8.31,6.43,4.51,2.96,4.4,4.91,3.52,2.17,3.75
CS(=O)(=O)c1ccc(C(F)(F)F)cc1NC(=O)Nc1cnc(Oc2ccc(-c3cc(Cl)cnc3N)cc2)nc1,11.5,7.52,7,6.23,6.53,5.26,16.8,> 32.1,5.12,> 29,3.07,2.24,2.4,2.05,2.12,2.25,3.24,3.07,1.75,2.86
O=[N+]([O-])c1ccc(N(CCO)CCO)c2c1no[n+]2[O-],6.54,10.7,4.21,15.9,5.18,9.28,3.71,8.92,5.82,7.02,1.89,1.84,1.8,1.57,1.27,1.61,1.32,1.83,1.22,1.37
CN(C)CCCC1(c2ccc(F)cc2)OCc2cc(-c3ccc4cc[nH]c4c3)ccc21 (stereo not given),3.91,5.93,3.41,5.36,4.34,3.56,3.64,4.57,7.9,13.8,1.96,2.33,1.78,2.17,2.04,1.73,1.83,2.11,2.28,3.32
N#Cc1ccc(-n2cnc(NC(=O)[C@H]3CCN(C#N)C3)c2)cc1,10.1,7.3,9.11,20.2,> 29.8,> 70.3,26.4,> 100,6.98,> 100,1.94,1.29,2.42,2.39,2.15,2.72,1.46,3.15,1.92,1.92
CCOC(=O)c1cc(C(=O)c2cc(OC)cc(OC)c2)n2ncccc12,> 100,> 100,> 100,> 100,> 100,> 100,> 100,> 100,> 100,> 100,67.1,0.403,11.4,7.45,2.63,4.16,0.518,11.1,24.9,3.77
O=C(NCCNCCO)c1ccc2oc3cc4ccccc4c(=O)n3c2c1,20.2,> 50,44.4,> 50,> 50,33,14.7,> 50,29.6,25.5,9.88,16.1,14.6,13.2,6.88,10.7,5.93,17.6,7.96,8.33
NC(=O)c1c(OCc2c(F)cc(Br)cc2F)nsc1NC(=O)NCCCCN1CCCC1,3.94,6.77,4.42,> 10,9.76,8.28,> 10,> 10,> 10,> 10,1.85,1.46,1.43,3.14,2.14,1.08,3.03,2.97,0.323,4
